Experimental data reported in ChEMBL document CHEMBL3885861, “Open TG-GATES”.

Species: Rattus norvegicus
Assay: Open TG-GATES - Regimen: Single
Type: toxicity, organism-based, Sprague-Dawley
Design: regimen Single, gender Male, age 6 weeks
Conditions: in vivo, po, 40 mg/kg, route gavage, dose level Low; for KIDNEY_L / KIDNEY_R / KIDNEY_TOTAL: tissue Kidney; for LIVER: tissue Liver

SMILES: CCC(C)(C)C(=O)O[C@H]1C[C@@H](C)C=C2C=C[C@H](C)[C@H](CC[C@@H]3C[C@@H](O)CC(=O)O3)[C@H]21 [SIMVASTATIN]
- TBIL (6 h, tissue Plasma): 0.4 mg/dL
- TC (6 h, tissue Plasma): 75.8 mg/dL
- TG (6 h, tissue Plasma): 50.8 mg/dL
- TP (6 h, tissue Plasma): 5.6 g/dL
- gamma-GTP (6 h, tissue Plasma): 1.2 IU/L
- TERMINAL_BW (9 h): 200.4 g
- Bas (9 h, tissue Blood): 0%
- Eos (9 h, tissue Blood): 0.8%
- Fbg (9 h, tissue Blood): 214.8 mg/dL
- Hb (9 h, tissue Blood): 13.2 g/dL
- Ht (9 h, tissue Blood): 40.1%
- Lym (9 h, tissue Blood): 78.6%
- MCH (9 h, tissue Blood): 22 pg
- MCHC (9 h, tissue Blood): 32.9%
- Mono (9 h, tissue Blood): 7.8%
- Neu (9 h, tissue Blood): 12.8%
- PT (9 h, tissue Blood): 11.7 s
- Plat (9 h, tissue Blood): 110 x10_4/uL
- RBC (9 h, tissue Blood): 601.2 x10_4/ul
- Ret (9 h, tissue Blood): 9.1%
- WBC (9 h, tissue Blood): 101.8 x10_2/uL
- KIDNEY_L (9 h): 0.9 g
- KIDNEY_R (9 h): 0.9 g
- KIDNEY_TOTAL (9 h): 1.8 g
- LIVER (9 h): 8.2 g
- ALP (9 h, tissue Plasma): 749.6 IU/L
- ALT (9 h, tissue Plasma): 32.8 IU/L
- AST (9 h, tissue Plasma): 58.4 IU/L
- BUN (9 h, tissue Plasma): 12.6 mg/dL
- CRE (9 h, tissue Plasma): 0.7 mg/dL
- DBIL (9 h, tissue Plasma): 0.016 mg/dL
- K (9 h, tissue Plasma): 4.6 meq/L
- LDH (9 h, tissue Plasma): 91 IU/L
- Na (9 h, tissue Plasma): 138 meq/L
- PL (9 h, tissue Plasma): 118.4 mg/dL
- RALB (9 h, tissue Plasma): 3.7 g/dL
- TBIL (9 h, tissue Plasma): 0.4 mg/dL
- TC (9 h, tissue Plasma): 64.8 mg/dL
- TG (9 h, tissue Plasma): 42 mg/dL
- TP (9 h, tissue Plasma): 5.4 g/dL
- gamma-GTP (9 h, tissue Plasma): 2 IU/L
- TERMINAL_BW (24 h): 216.2 g
- Bas (24 h, tissue Blood): 0%
- Eos (24 h, tissue Blood): 1%
- Fbg (24 h, tissue Blood): 221.2 mg/dL
- Hb (24 h, tissue Blood): 12.5 g/dL
- Ht (24 h, tissue Blood): 38.2%
- Lym (24 h, tissue Blood): 78.6%
- MCHC (24 h, tissue Blood): 32.8%
- Mono (24 h, tissue Blood): 9.8%
- Neu (24 h, tissue Blood): 11%
- Plat (24 h, tissue Blood): 119.9 x10_4/uL
- RBC (24 h, tissue Blood): 588.4 x10_4/ul
- WBC (24 h, tissue Blood): 118.8 x10_2/uL
- KIDNEY_L (24 h): 1 g
- KIDNEY_R (24 h): 1 g
- KIDNEY_TOTAL (24 h): 2 g
- LIVER (24 h): 10.8 g
- ALP (24 h, tissue Plasma): 866.2 IU/L
- ALT (24 h, tissue Plasma): 41.6 IU/L
- AST (24 h, tissue Plasma): 63.6 IU/L
- BUN (24 h, tissue Plasma): 18.6 mg/dL
- CRE (24 h, tissue Plasma): 0.5 mg/dL
- Ca (24 h, tissue Plasma): 10.8 mg/dL
- DBIL (24 h, tissue Plasma): 0.022 mg/dL
- IP (24 h, tissue Plasma): 8.4 mg/dL
- K (24 h, tissue Plasma): 4.6 meq/L
- LDH (24 h, tissue Plasma): 108.4 IU/L
- Na (24 h, tissue Plasma): 140.2 meq/L
- PL (24 h, tissue Plasma): 144.6 mg/dL
- RALB (24 h, tissue Plasma): 3.7 g/dL
- TBIL (24 h, tissue Plasma): 0.3 mg/dL
